Experimental findings from patent publication US10519152B2, “Compounds and their use in treating cancer” (AstraZeneca AB, priority 2017, dated 2019) are described below.

For experiment [1], the target named is T1, Estrogen Receptor (ERα) in MCF-7 human ductal carcinoma breast cell line (Homo sapiens, UniProt P03372).
T1 construct: endogenous in cells; host or cells: MCF-7
T1 sequence (P03372 1-595): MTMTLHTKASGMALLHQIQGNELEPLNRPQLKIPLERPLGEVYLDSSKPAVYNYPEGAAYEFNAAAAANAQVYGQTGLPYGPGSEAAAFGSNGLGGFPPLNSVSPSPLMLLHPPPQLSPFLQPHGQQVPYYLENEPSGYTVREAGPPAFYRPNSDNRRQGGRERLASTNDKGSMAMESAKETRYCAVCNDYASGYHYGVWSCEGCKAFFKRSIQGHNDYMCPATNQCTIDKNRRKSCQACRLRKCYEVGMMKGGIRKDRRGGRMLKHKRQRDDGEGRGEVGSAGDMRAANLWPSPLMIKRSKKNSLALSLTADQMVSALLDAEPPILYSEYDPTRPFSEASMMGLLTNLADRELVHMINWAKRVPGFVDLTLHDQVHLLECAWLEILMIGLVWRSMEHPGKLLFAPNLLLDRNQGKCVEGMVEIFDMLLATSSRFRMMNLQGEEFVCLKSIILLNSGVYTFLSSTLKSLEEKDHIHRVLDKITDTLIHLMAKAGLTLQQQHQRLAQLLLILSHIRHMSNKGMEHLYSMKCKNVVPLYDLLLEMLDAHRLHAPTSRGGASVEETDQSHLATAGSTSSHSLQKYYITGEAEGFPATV
Description: MCF-7 ER degradation assay (cell based immuno-fluorescence). The conditions noted are these: MCF-7 cells; for DC50: 18-22 hours incubation, 50% reduction of ERα expression, single experiment or average of two or more, read-out: MCF-7 ER degradation IC50. How it is done:
MCF-7 ER Degradation Assay
The ability of compounds to down-regulate Estrogen Receptor (ER) numbers was assessed in a cell based immuno-fluorescence assay using the MCF-7 human ductal carcinoma breast cell line. MCF-7 cells were revived directly from a cryovial (approx 5×10^6 cells) in Assay Medium (phenol red free Dulbecco's Modified Eagle's medium (DMEM); Sigma D5921) containing 2 mM L-Glutamine and 5% (v/v) Charcoal/Dextran treated foetal calf serum. Cells were syringed once using a sterile 18 G×1.5 inch (1.2×40 mm) broad gauge needle and cell density was measured using a Coulter Counter (Beckman). Cells were further diluted in Assay Medium to a density of 3.75×10^4 cells per mL and 40 μL per well added to transparent bottomed, black, tissue culture-treated 384 well plates (Costar, No. 3712) using a Thermo Scientific Matrix WellMate or Thermo Multidrop. Following cell seeding, plates were incubated overnight at 37° C., 5% CO2 (Liconic carousel incubator). Test data was generated using the LabCyte Echo™ model 555 compound reformatter which is part of an automated workcell (Integrated Echo 2 workcell). Compound stock solutions (10 mM) of the test compounds were used to generate a 384 well compound dosing plate (Labcyte P-05525-CV1). 40 μL of each of the 10 mM compound stock solutions was dispensed into the first quadrant well and then 1:100 step-wise serial dilutions in DMSO were performed using a Hydra II (MATRIX UK) liquid handling unit to give 40 μL of diluted compound into quadrant wells 2 (0.1 mM), 3 (1 μM) and 4 (0.01 μM), respectively. 40 μL of DMSO added to wells in row P on the source plate allowed for DMSO normalisation across the dose range. To dose the control wells 40 μL of DMSO was added to row O1 and 40 μL of 100 μM fulvestrant in DMSO was added to row O3 on the compound source plate.
The Echo uses acoustic technology to perform direct microplate-to-microplate transfers of DMSO compound solutions to assay plates. The system can be programmed to transfer volumes as low as 2.5 nL in multiple increments between microplates and in so doing generates a serial dilution of compound in the assay plate which is then back-filled to normalise the DMSO concentration across the dilution range. Compounds were dispensed onto the cell plates with a compound source plate prepared as above producing a 12 point duplicate […] dose range with 3-fold dilutions and one final 10-fold dilution using the Integrated Echo 2 workcell. The maximum signal control wells were dosed with DMSO to give a final concentration of 0.3%, and the minimum signal control wells were dosed with fulvestrant to give a final concentration of 100 nM accordingly. Plates were further incubated for 18-22 hours at 37° C., 5% CO2 and then fixed by the addition of 20 μL of 11.1% (v/v) formaldehyde solution (in phosphate buffered saline (PBS)) giving a final formaldehyde concentration of 3.7% (v/v). Cells were fixed at room temperature for 20 mins before being washed two times with 250 μL PBS/Proclin (PBS with a Biocide preservative) using a BioTek platewasher, 40 μL of PBS/Proclin was then added to all wells and the plates stored at 4° C. The fixing method described above was carried out on the Integrated Echo 2 workcell. Immunostaining was performed using an automated AutoElisa workcell. The PBS/Proclin was aspirated from all wells and the cells permeabilised with 40 μL PBS containing 0.5% Tween™ 20 (v/v) for 1 hour at room temperature. The plates were washed three times in 250 μL of PBS/0.05% (v/v) Tween 20 with Proclin (PBST with a Biocide preservative) and then 20 μL of ERα (SP1) Rabbit monoclonal antibody (Thermofisher) 1:1000 in PBS/Tween™/3% (w/v) Bovine Serum Albumin was added. The plates were incubated overnight at 4° C. (Liconic carousel incubator) and then washed three times in 250 μL of PBS/0.05% (v/v) Tween™ 20 with Proclin (PBST). […]

Experiment [2] has as its target T2, recombinant human Estrogen Receptor alpha ligand binding domain, residues 307-554 (ER alpha-LBD (GST)) (Homo sapiens, UniProt P03372).
T2 construct: made in house
T2 sequence (P03372 307-554): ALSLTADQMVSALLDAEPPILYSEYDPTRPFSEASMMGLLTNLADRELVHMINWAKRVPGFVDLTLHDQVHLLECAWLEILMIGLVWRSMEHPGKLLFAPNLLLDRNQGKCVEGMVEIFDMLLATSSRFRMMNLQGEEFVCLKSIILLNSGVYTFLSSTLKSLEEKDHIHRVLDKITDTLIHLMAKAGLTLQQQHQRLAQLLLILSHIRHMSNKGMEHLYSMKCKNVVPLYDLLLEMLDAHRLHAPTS
Description: ERα binding assay (LanthaScreen TR-FRET competition). The conditions noted are these: TR-FRET competition with Fluormone ES2 tracer, 4 hours at room temperature; single experiment or average of two or more. How it is done: The ability of compounds to bind to isolated Estrogen Receptor Alpha Ligand binding domain (ER alpha-LBD (GST)) was assessed in competition assays using a LanthaScreen™ Time-Resolved Fluorescence Resonance Energy Transfer (TR-FRET) detection end-point. For the LanthaScreen TR-FRET endpoint, a suitable fluorophore (Fluormone ES2, ThermoFisher, Product code P2645) and recombinant human Estrogen Receptor alpha ligand binding domain, residues 307-554 (expressed and purified in-house) were used to measure compound binding. The assay principle is that ER alpha-LBD (GST) is added to a fluorescent ligand to form a receptor/fluorophore complex. A terbium-labelled anti-GST antibody (Product code PV3551) is used to indirectly label the receptor by binding to its GST tag, and competitive binding is detected by a test compound's ability to displace the fluorescent ligand, resulting in a loss of TR-FRET signal between the Tb-anti-GST antibody and the tracer. The assay was performed as follows with all reagent additions carried out using the Beckman Coulter BioRAPTR FRD microfluidic workstation: • 1. Acoustic dispense 120 nL of the test compound into a black low volume 384 well assay plates. • 2. Prepare 1×ER alpha-LBD/Tb-antiGST Ab in ES2 screening buffer and incubate for 15 minutes. • 3. Dispense 6 μL of the […] reagent into each well of the assay plate followed by 6 μL of Fluorophore reagent into each well of the assay plate • 4. Cover the assay plate to protect the reagents from light and evaporation, and incubate at room temperature for 4 hours. • 5. Excite at 337 nm and measure the fluorescent emission signal of each well at 490 nm and 520 nm using the BMG PheraSTAR.
Compounds were dosed directly from a compound source microplate containing serially diluted compound (4 wells containing 10 mM, […] and 10 nM final compound respectively) to an assay microplate using the Labcyte Echo 550. The Echo 550 is a liquid handler that uses acoustic technology to perform direct microplate-to-microplate transfers of DMSO compound solutions and the system can be programmed to transfer multiple small nL volumes of compound from the different source plate wells to give the desired serial dilution of compound in the assay which is then back-filled to normalise the DMSO concentration across the dilution range.
In total 120 nL of compound plus DMSO were added to each well and compounds were tested in a 12-point concentration response format over a final compound concentration range of 10, 2.917, 1.042, 0.2083, 0.1, 0.0292, 0.0104, 0.002083, 0.001, 0.0002917, 0.0001042, and 0.00001 μM respectively. TR-FRET dose response data obtained with each compound was exported into a suitable software package (such as Origin or Genedata) to perform curve fitting analysis. Competitive ER alpha binding was expressed as an IC50 value. This was determined by calculation of the concentration of compound that was required to give a 50% reduction in tracer compound binding to ER alpha-LBD.

As for `Cc1ncsc1-c1ccc(CNC(=O)[C@@H]2C[C@@H](O)CN2C(=O)[C@@H](NC(=O)COCCCCCN2CC(Oc3cc(F)c([C@@H]4c5[nH]c6ccccc6c5C[C@@H](C)N4CC(C)(C)F)c(F)c3)C2)C(C)(C)C)cc1` [Example 46, (2S,4R)-1-((S)-2-(2-((5-(3-(3,5-difluoro-4-((1R,3R)-2-(2-fluoro-2-methylpropyl)-3-methyl-2,3,4,9-tetrahydro-1H-pyrido[3,4-b]indol-1-yl)phenoxy)azetidin-1-yl)pentyl)oxy)acetamido)-3,3-dimethylbutanoyl)-4-hydroxy-N-(4-(4-methylthiazol-5-yl)benzyl)pyrrolidine-2-carboxamide], the DC50 in experiment [1] amounted to 2 nM. Moreover, the IC50 in experiment [2] stood at 0.8 nM.

As for `Cc1ncsc1-c1ccc(CNC(=O)[C@@H]2C[C@@H](O)CN2C(=O)[C@@H](NC(=O)COCCCOc2cc(F)c([C@@H]3c4[nH]c5ccccc5c4C[C@@H](C)N3CC(C)(C)F)c(F)c2)C(C)(C)C)cc1` [Example 41, (2S,4R)-1-((S)-2-(2-(3-(3,5-difluoro-4-((1R,3R)-2-(2-fluoro-2-methylpropyl)-3-methyl-2,3,4,9-tetrahydro-1H-pyrido[3,4-b]indol-1-yl)phenoxy)propoxy)acetamido)-3,3-dimethylbutanoyl)-4-hydroxy-N-(4-(4-methylthiazol-5-yl)benzyl)pyrrolidine-2-carboxamide], the DC50 in experiment [1] worked out at 1.7 nM. In experiment [2], the IC50 was 0.7 nM.

For `Cc1ncsc1-c1ccc(CNC(=O)[C@@H]2C[C@@H](O)CN2C(=O)[C@@H](NC(=O)COCC#CC#CCOc2cc(F)c([C@@H]3c4[nH]c5ccccc5c4C[C@@H](C)N3CC(C)(C)F)c(F)c2)C(C)(C)C)cc1` [Example 50, (2S,4R)-1-((S)-2-(2-((6-(3,5-difluoro-4-((1R,3R)-2-(2-fluoro-2-methylpropyl)-3-methyl-2,3,4,9-tetrahydro-1H-pyrido[3,4-b]indol-1-yl)phenoxy)hexa-2,4-diyn-1-yl)oxy)acetamido)-3,3-dimethylbutanoyl)-4-hydroxy-N-(4-(4-methylthiazol-5-yl)benzyl)pyrrolidine-2-carboxamide], the DC50 in experiment [1] came to 6.6 nM. In addition, the IC50 in experiment [2] is 1.2 nM.

Take `Cc1ncsc1-c1ccc(CNC(=O)[C@@H]2C[C@@H](O)CN2C(=O)[C@@H](NC(=O)CN2CC3(CCN(CCOc4cc(F)c([C@@H]5c6[nH]c7ccccc7c6C[C@@H](C)N5CC(C)(C)F)c(F)c4)CC3)C2)C(C)(C)C)cc1` [Example 42, (2S,4R)-1-((S)-2-(2-(7-(2-(3,5-difluoro-4-((1R,3R)-2-(2-fluoro-2-methylpropyl)-3-methyl-2,3,4,9-tetrahydro-1H-pyrido[3,4-b]indol-1-yl)phenoxy)ethyl)-2,7-diazaspiro[3.5]nonan-2-yl)acetamido)-3,3-dimethylbutanoyl)-4-hydroxy-N-(4-(4-methylthiazol-5-yl)benzyl)pyrrolidine-2-carboxamide]: the DC50 in experiment [1] stood at 1.9 nM. Besides, the IC50 in experiment [2] is 1.3 nM.

For the compound `Cc1ncsc1-c1ccc(CNC(=O)[C@@H]2C[C@@H](O)CN2C(=O)[C@@H](NC(=O)COCCOCCOc2cc(F)c([C@@H]3c4[nH]c5ccccc5c4C[C@@H](C)N3CC(C)(C)F)c(F)c2)C(C)(C)C)cc1` [Example 39, (2S,4R)-1-((S)-2-(2-(2-(2-(3,5-difluoro-4-((R,3R)-2-(2-fluoro-2-methylpropyl)-3-methyl-2,3,4,9-tetrahydro-1H-pyrido[3,4-b]indol-1-yl)phenoxy)ethoxy)ethoxy)acetamido)-3,3-dimethylbutanoyl)-4-hydroxy-N-(4-(4-methylthiazol-5-yl)benzyl)pyrrolidine-2-carboxamide], the “ER degradation ≥ 90% at 0.3 μM” value in experiment [1] (0.3 μM, ER degradation by fulvestrant at 0.3 μM is defined as 100%) is listed as “•”. Also, the IC50 in experiment [2] worked out at 0.7 nM.
